Results published in patent publication US20050143350A1, “Combination drug therapy to treat obesity” (priority 2003, published 2005).
“Also recorded” adds a separate entry of the source.

How the values were obtained:
[1] = Patient case records: body weight during co-administration of an anticholinesterase agent and an antidepressant; type: in vivo, human; parameters: Weight / Wt. Chg. / Δ Wt.: unit not given here; settings: for Wt. Chg.: positive = loss
Description: The following examples illustrate exemplified treatment regimens and resultant synergistic effects in achieving long-term stable weight loss by co-administering to an individual an anticholinesterase agent and an antidepressant. Each patient is given an alphanumeric designator.

[2] = system: P450 cytochrome; settings: cited from earlier work
[3] = in vivo; cited from earlier work
[4] = doses over 300 mg a day; cited from earlier work
[5] = Patient B3, comments wrap over rows: 'Epigastric discomfort, no vomiting.' (day 70), 'Bowels a little loose' (day 126), 'Vomiting after rivastigmine at supper' (day 175), 'Diethylpropion made them vomit twice.' (day 189)
[6] = patient R2, day 14, baseline 209.3, venlafaxine 75 mg alone, no rivastigmine
[7] = patient R2, day 35, baseline 209.3, venlafaxine 75 mg alone, no rivastigmine
[8] = patient R2, day 111, baseline 209.3, venlafaxine 75 mg alone, no rivastigmine

SMILES: CCN(CC)C(C)C(=O)c1ccccc1 (stereo not shown) [Diethylpropion, diethylpropion]
- Comments (side effects) [1, 5]: vomit

SMILES: CN(C)C(=N)N=C(N)N [Metformin]
- Comments (side effects) ([1]; Patient B1, comment wraps over rows: 'Sweating and uncomfortable stomach in a.m.' (day 59), 'Metformin causes diarrhea'): diarrhea

SMILES: CCN(C)C(=O)Oc1cccc([C@H](C)N(C)C)c1 [Riva.]
- Comments: adverse effects ([1]; patient M1, day 153, Tried 12 mg of Riva.): Caused vomit-; also recorded: ing, diarrhea,; also recorded: dizzy. B.P
- B.P. (Comments) ([1]; patient M1, day 153, Tried 12 mg of Riva., initial B.P. 140/100): 88/64

SMILES: CCN(C)C(=O)Oc1cccc([C@H](C)N(C)C)c1 [Rivastigmine, rivastigmine]
- Comments (side effects) [1, 5]: Vomiting
- metabolism by the P450 cytochrome [2]: not metabolized by the P450 cytochrome

SMILES: COc1ccc(C(CN(C)C)C2(O)CCCCC2)cc1 (stereo not shown) [Venlafaxine, venlafaxine]
- Δ Wt. ([1]; Patient F1, change from baseline 214.5, positive = weight lost, visit day = Days column (7-512)): 6.0
- Weight ([1]; human, in vivo): 208.5
- Weight [1, 6]: 207.5
- Wt. Chg. [1, 6]: 1.8
- Weight [1, 7]: 206.0
- Wt. Chg. [1, 7]: 3.3
- Weight [1, 8]: 213.3
- Wt. Chg. [1, 8]: −4.0
- absorption, influence of food [3]: not influenced by the presence of food
- patients with a mild increase in blood pressure [4]: 15%
